# From patent US8623899B2, “Bis-benzimidazole derivatives as hepatitis C virus inhibitors” (Janssen Research & Development Ireland, priority 2009, dated 2014)
# Tested on: HCV type 1b replicon in Huh-7 luc/neo (Huh-Luc) cells
# Test: HCV replicon assay (Huh-Luc, luciferase readout)
# Format: cell-based
# Conditions: Hepatitis C virus, Huh-7, 72 h, luciferase activity, incubation of three days, read-out: HCV-REP-HUH7LUC_EC50
# From the text: The compounds of formula (I) were examined for inhibitory activity in the HCV replicon. This cellular assay is based on a bicistronic expression construct, as described by Lohmann et al. (1999) Science vol. 285 pp. 110-113 with modifications described by Krieger et al. (2001) Journal of Virology 75: 4614-4624, in a multi-target screening strategy.
# In essence, the method was as follows:
# The assay utilized the stably transfected cell line Huh-7 luc/neo (hereafter referred to as Huh-Luc). This cell line harbors an RNA encoding a bicistronic expression construct comprising the wild type NS3-NS5B regions of HCV type 1b translated from an Internal Ribosome Entry Site (IRES) from encephalomyocarditis virus (EMCV), preceded by a reporter portion (FfL-luciferase), and a selectable marker portion (neo^R, neomycine phosphotransferase). The construct is flanked by 5′ and 3′ NTRs (non-translated regions) from HCV type 1b. Continued culture of the replicon cells in the presence of G418 (neo^R) is dependent on the replication of the HCV RNA. The stably transfected replicon cells that express HCV RNA, which replicates autonomously and to high levels, encoding inter alia luciferase, were used for screening the antiviral compounds.
# The replicon cells were plated in 384 well plates in the presence of the test and control compounds which were added in various concentrations. Following an incubation of three days, HCV replication was measured by assaying luciferase activity (using standard luciferase assay substrates and reagents and a Perkin Elmer ViewLux™ ultraHTS microplate imager). Replicon cells in the control cultures have high luciferase expression in the absence of any inhibitor. The inhibitory activity of the compound on luciferase activity was monitored on the Huh-Luc cells, enabling a dose-response curve for each test compound. EC50 values were then calculated, which represent the amount of compound required to decrease the level of detected luciferase activity by 50%, or more specifically, to reduce the ability of the genetically linked HCV replicon RNA to replicate.
row,SMILES,EC50
1,O=C(C(O)Cc1cccnc1)N1CCC[C@H]1c1nc2ccc(-c3ccc(-c4ccc5nc([C@@H]6CCCN6C(=O)C(O)Cc6cccnc6)[nH]c5c4)cc3)cc2[nH]1 (mixture of isomers) [Compound 35],22 nM
2,O=C(C(c1ccccc1)N1C2CCC1CC2)N1CCC[C@H]1c1nc2ccc(-c3ccc(-c4ccc5nc([C@@H]6CCCN6C(=O)C(c6ccccc6)N6C7CCC6CC7)[nH]c5c4)cc3)cc2[nH]1 (mixture of isomers) [Compound 43],3.2 nM
3,O=C(C(c1ccccc1)N1CCCC(F)(F)C1)N1CCC[C@H]1c1nc2ccc(-c3ccc(-c4ccc5nc([C@@H]6CCCN6C(=O)C(c6ccccc6)N6CCCC(F)(F)C6)[nH]c5c4)cc3)cc2[nH]1 (mixture of isomers) [Compound 44],0.22 nM
4,O=C(C(Nc1ccccc1)c1ccc(Cl)cc1)N1CCC[C@H]1c1nc2ccc(-c3ccc(-c4ccc5nc([C@@H]6CCCN6C(=O)C(Nc6ccccc6)c6ccc(Cl)cc6)[nH]c5c4)cc3)cc2[nH]1 (mixture of isomers) [Compound 47],1.5 nM
5,COC(=O)NC(C(=O)N1CCC[C@H]1c1nc2ccc(-c3ccc(-c4ccc5nc([C@@H]6CCCN6C(=O)C(NC(=O)OC)C6CCOCC6)[nH]c5c4)cc3)cc2[nH]1)C1CCOCC1 (mixture of isomers) [Compound 55],0.18 nM
6,O=C(Cc1ccccc1)N1CCC[C@H]1c1nc2ccc(-c3ccc(-c4ccc5nc([C@@H]6CCCN6C(=O)Cc6ccccc6)[nH]c5c4)cc3)cc2[nH]1 [Compound 1],0.1 nM
7,COC(=O)N[C@H](C(=O)N1CCC[C@H]1c1nc2cc(-c3ccc(-c4ccc5nc([C@@H]6CCCN6C(=O)[C@@H](NC(=O)OC)[C@@H](C)OC)[nH]c5c4)cc3)ccc2[nH]1)[C@@H](C)OC [Compound 2],0.021 nM
8,O=C([C@H]1CCCO1)N1CCC[C@H]1c1nc2ccc(-c3ccc(-c4ccc5nc([C@@H]6CCCN6C(=O)[C@H]6CCCO6)[nH]c5c4)cc3)cc2[nH]1 [Compound 3],20 nM
9,CC(=O)N[C@@H](C(=O)N1CCC[C@H]1c1nc2ccc(-c3ccc(-c4ccc5nc([C@@H]6CCCN6C(=O)[C@H](NC(C)=O)c6ccccc6)[nH]c5c4)cc3)cc2[nH]1)c1ccccc1 [Compound 4],0.18 nM
10,CN(C)C(C(=O)N1CCC[C@H]1c1nc2ccc(-c3ccc(-c4ccc5nc([C@@H]6CCCN6C(=O)C(c6ccc(Cl)cc6)N(C)C)[nH]c5c4)cc3)cc2[nH]1)c1ccc(Cl)cc1 (stereo partly shown) [Compound 5],0.59 nM
11,COc1cccc(CCC(=O)N2CCC[C@H]2c2nc3ccc(-c4ccc(-c5ccc6nc([C@@H]7CCCN7C(=O)CCc7cccc(OC)c7)[nH]c6c5)cc4)cc3[nH]2)c1 [Compound 6],500 nM
12,O=C([C@@H](O)c1ccccc1)N1CCC[C@H]1c1nc2ccc(-c3ccc(-c4ccc5nc([C@@H]6CCCN6C(=O)[C@@H](O)c6ccccc6)[nH]c5c4)cc3)cc2[nH]1 [Compound 7],0.057 nM
13,O=C(CCc1ccccc1F)N1CCC[C@H]1c1nc2ccc(-c3ccc(-c4ccc5nc([C@@H]6CCCN6C(=O)CCc6ccccc6F)[nH]c5c4)cc3)cc2[nH]1 [Compound 8],160 nM
14,COC(=O)NC1(C(=O)N2CCC[C@H]2c2nc3ccc(-c4ccc(-c5ccc6nc([C@@H]7CCCN7C(=O)C7(NC(=O)OC)CC7)[nH]c6c5)cc4)cc3[nH]2)CC1 [Compound 9],1 nM
15,COc1c(F)cc(CC(=O)N2CCC[C@H]2c2nc3ccc(-c4ccc(-c5ccc6nc([C@@H]7CCCN7C(=O)Cc7cc(F)c(OC)c(F)c7)[nH]c6c5)cc4)cc3[nH]2)cc1F [Compound 10],130 nM
16,O=C(Cc1ccccc1OC(F)(F)F)N1CCC[C@H]1c1nc2ccc(-c3ccc(-c4ccc5nc([C@@H]6CCCN6C(=O)Cc6ccccc6OC(F)(F)F)[nH]c5c4)cc3)cc2[nH]1 [Compound 11],160 nM
17,O=C(Cc1cccnc1)N1CCC[C@H]1c1nc2ccc(-c3ccc(-c4ccc5nc([C@@H]6CCCN6C(=O)Cc6cccnc6)[nH]c5c4)cc3)cc2[nH]1 [Compound 12],0.15 nM
18,O=C(CCc1cccnc1)N1CCC[C@H]1c1nc2ccc(-c3ccc(-c4ccc5nc([C@@H]6CCCN6C(=O)CCc6cccnc6)[nH]c5c4)cc3)cc2[nH]1 [Compound 13],0.5 nM
19,O=C([C@@H]1CCCO1)N1CCC[C@H]1c1nc2ccc(-c3ccc(-c4ccc5nc([C@@H]6CCCN6C(=O)[C@@H]6CCCO6)[nH]c5c4)cc3)cc2[nH]1 [Compound 14],36 nM
20,O=C(C(=O)N1CCC[C@H]1c1nc2ccc(-c3ccc(-c4ccc5nc([C@@H]6CCCN6C(=O)C(=O)c6ccccc6)[nH]c5c4)cc3)cc2[nH]1)c1ccccc1 [Compound 15],40 nM

row,SMILES,EC50
1,O=C(Cc1ccc2c(c1)OCO2)N1CCC[C@H]1c1nc2ccc(-c3ccc(-c4ccc5nc([C@@H]6CCCN6C(=O)Cc6ccc7c(c6)OCO7)[nH]c5c4)cc3)cc2[nH]1 [Compound 16],69 nM
2,CCN(CC)[C@@H](C(=O)N1CCC[C@H]1c1nc2ccc(-c3ccc(-c4ccc5nc([C@@H]6CCCN6C(=O)[C@@H](c6ccccc6)N(CC)CC)[nH]c5c4)cc3)cc2[nH]1)c1ccccc1 [Compound 17],0.03 nM
3,CN(C)CCC(=O)N1CCC[C@H]1c1nc2ccc(-c3ccc(-c4ccc5nc([C@@H]6CCCN6C(=O)CCN(C)C)[nH]c5c4)cc3)cc2[nH]1 [Compound 18],49 nM
4,O=C(C(c1ccccc1)n1ccnc1)N1CCC[C@H]1c1nc2ccc(-c3ccc(-c4ccc5nc([C@@H]6CCCN6C(=O)C(c6ccccc6)n6ccnc6)[nH]c5c4)cc3)cc2[nH]1 (stereo partly shown) [Compound 19],0.45 nM
5,O=C([C@@H](c1ccccc1)N1CCCCC1)N1CCC[C@H]1c1nc2ccc(-c3ccc(-c4ccc5nc([C@@H]6CCCN6C(=O)[C@@H](c6ccccc6)N6CCCCC6)[nH]c5c4)cc3)cc2[nH]1 [Compound 20],0.061 nM
6,O=C(c1ccoc1)N1CCC[C@H]1c1nc2ccc(-c3ccc(-c4ccc5nc([C@@H]6CCCN6C(=O)c6ccoc6)[nH]c5c4)cc3)cc2[nH]1 [Compound 21],58 nM
7,CCC(=O)N[C@@H](C(=O)N1CCC[C@H]1c1nc2ccc(-c3ccc(-c4ccc5nc([C@@H]6CCCN6C(=O)[C@H](NC(=O)CC)c6ccccc6)[nH]c5c4)cc3)cc2[nH]1)c1ccccc1 [Compound 22],0.034 nM
8,CNC(=O)N[C@H](C(=O)N1CCC[C@H]1c1nc2ccc(-c3ccc(-c4ccc5nc([C@@H]6CCCN6C(=O)[C@@H](NC(=O)NC)C(C)C)[nH]c5c4)cc3)cc2[nH]1)C(C)C [Compound 23],0.57 nM
9,Cc1nc(C(=O)N2CCC[C@H]2c2nc3ccc(-c4ccc(-c5ccc6nc([C@@H]7CCCN7C(=O)c7nc(C)oc7C)[nH]c6c5)cc4)cc3[nH]2)c(C)o1 [Compound 24],1.4 nM
10,O=C(c1ccccn1)N1CCC[C@H]1c1nc2ccc(-c3ccc(-c4ccc5nc([C@@H]6CCCN6C(=O)c6ccccn6)[nH]c5c4)cc3)cc2[nH]1 [Compound 25],1.7 nM
11,CC(C)C[C@@H](C(=O)N1CCC[C@H]1c1nc2ccc(-c3ccc(-c4ccc5nc([C@@H]6CCCN6C(=O)[C@H](CC(C)C)N(C)C)[nH]c5c4)cc3)cc2[nH]1)N(C)C [Compound 26],76 nM
12,O=C(c1ccc(F)cc1)N1CCC[C@H]1c1nc2ccc(-c3ccc(-c4ccc5nc([C@@H]6CCCN6C(=O)c6ccc(F)cc6)[nH]c5c4)cc3)cc2[nH]1 [Compound 27],240 nM
13,CC(C)[C@@H](C(=O)N1CCC[C@H]1c1nc2ccc(-c3ccc(-c4ccc5nc([C@@H]6CCCN6C(=O)[C@H](C(C)C)N(C)C)[nH]c5c4)cc3)cc2[nH]1)N(C)C [Compound 28],70 nM
14,O=C(CC1CCCCC1)N1CCC[C@H]1c1nc2ccc(-c3ccc(-c4ccc5nc([C@@H]6CCCN6C(=O)CC6CCCCC6)[nH]c5c4)cc3)cc2[nH]1 [Compound 29],550 nM
15,COC(=O)N[C@H](C(=O)N1CCC[C@H]1c1nc2ccc(-c3ccc(-c4ccc5nc([C@@H]6CCCN6C(=O)[C@@H](NC(=O)OC)C(C)C)[nH]c5c4)cc3)cc2[nH]1)C(C)C [Compound 30],0.006 nM
16,O=C(c1cccnc1)N1CCC[C@H]1c1nc2ccc(-c3ccc(-c4ccc5nc([C@@H]6CCCN6C(=O)c6cccnc6)[nH]c5c4)cc3)cc2[nH]1 [Compound 31],280 nM
17,COC(=O)N[C@@H](C(=O)N1CCC[C@H]1c1nc2ccc(-c3ccc(-c4ccc5nc([C@@H]6CCCN6C(=O)[C@H](NC(=O)OC)C(C)C)[nH]c5c4)cc3)cc2[nH]1)C(C)C [Compound 32],6.9 nM
18,CC(C)[C@H](O)C(=O)N1CCC[C@H]1c1nc2ccc(-c3ccc(-c4ccc5nc([C@@H]6CCCN6C(=O)[C@@H](O)C(C)C)[nH]c5c4)cc3)cc2[nH]1 [Compound 33],110 nM
19,O=C([C@H](O)c1ccccc1)N1CCC[C@H]1c1nc2ccc(-c3ccc(-c4ccc5nc([C@@H]6CCCN6C(=O)[C@H](O)c6ccccc6)[nH]c5c4)cc3)cc2[nH]1 [Compound 34],0.0037 nM
20,CN(C)[C@@H](C(=O)N1CCC[C@H]1c1nc2ccc(-c3ccc(-c4ccc5nc([C@@H]6CCCN6C(=O)[C@@H](c6ccccc6)N(C)C)[nH]c5c4)cc3)cc2[nH]1)c1ccccc1 [Compound 36],0.073 nM
